Assay results reported in US9550792B2, “Polycyclic substituted pyrazole kinase activity inhibitors and use thereof” (priority 2013, dated 2017).
“And” between values parts separate entries of the source, which are not always exact repeats. Identical values can stand only once. Like-named read-outs stand apart in the source and are kept apart here.

Columns and labels:
[1] = Plasma stability; type: in vitro ADME; settings: rat plasma
Procedure: (§1) 300 μL blood collected from the rat was mixed with 30 μL methanol and 2 mL ethyl acetate. The samples were vortexed for 3 min and centrifuged at 4000 rpm for 15 min. The supernatant was introduced into another centrifugal tube. The lower layer was repeatedly extracted and then the supernatants were combined and dried with nitrogen gas. After redissolution with 150 μL methanol, they were filtered by 0.22 μm membrane and then subjected to analysis with a injection volume of 20 μL.
[…] The samples were prepared according to the method of 3.1. 20 μL were introduced into the HPLC system and the peak area is recorded for analysis to determine the stability of compound 1 and 2 in plasma.

[2] = system: leukemia cell line K562; assay: Anti-tumor activity in vitro, MTT method; settings: Homo sapiens, K562, 48 h, read-out: K562 (IC50/μM)
Procedure: (§2) MTT method: the dehydrogenase associated with NADP in the mitochondria of living cell is capable of reducing exogenous MTT into insoluble bluish violet crystal (Formazan), which is precipitated in the cell. […] DMSO or Triple liquid (10% SDS-5% isobutanol-0.01 mol/L HCl) is used to dissolve the crystal in the cell. The OD determined at 570 nm by a microplate reader can reflect the amount of the living cell indirectly.
(§3) The crystal is dissolved with DMSO and the detection is performed on a microplate reader.

[3] = system: liver cancer cell line HEPG2; assay: Anti-tumor activity in vitro, MTT method; settings: Homo sapiens, HepG2, 48 h, read-out: HEPG2 (IC50/μM)
Procedure: as §2, §3

[4] = system: lung cancer cell line A549; assay: Anti-tumor activity in vitro, MTT method; settings: Homo sapiens, A549, 48 h, read-out: A549 (IC50/μM)
Procedure: as §2, §3

[5] = system: leukemia cell line NB4; assay: Anti-tumor activity in vitro, MTT method; settings: 48 h, read-out: NB4 (IC50/μM)
Procedure: as §2, §3

[6] = Measurement of lipid-water partition coefficient (Log P); type: physicochemical; settings: n-octanol/distilled water, 25° C.
Procedure: n-octanol and distilled water were allowed to saturate each other for 24 h. An amount of the sample was weighed accurately into a 50 mL volumetric flask and metered with n-octanol that was saturated with water (the sample was dissolved completely). A 10 mL solution of the sample in n-octanol was placed in a 50 mL triangular flask, to which was added 10 mL distilled water which was saturated with n-octanol. The mixture was equilibrated (125 rpm, 72 h) at 25° C. with a constant temperature vibrator. The lipid-water partition coefficient was calculated by the concentrations of the drug in the n-octanol stock solution before the experiment and in the n-octanol layer after experiment.

[7] = system: breast cancer cell line MCF-7; assay: Anti-tumor activity in vitro, MTT method; settings: Homo sapiens, MCF7, 48 h, read-out: MCF7 (IC50/μM)
Procedure: as §2, §3

[8] = system: stomach cancer cell line BSG823; assay: Anti-tumor activity in vitro, MTT method; settings: 48 h, read-out: BSG823 (IC50/μM)
Procedure: as §2, §3

[9] = system: stomach cancer cell line MGC803; assay: Anti-tumor activity in vitro, MTT method; settings: Homo sapiens, MGC-803, 48 h, read-out: MGC803 (IC50/μM)
Procedure: as §2, §3

[10] = system: umbilical cord vein endothelium cell line HUVEC; assay: Anti-tumor activity in vitro, MTT method; settings: Homo sapiens, 48 h, read-out: HUVEC (IC50/μM)
Procedure: as §2, §3

[11] = Pharmacokinetics after single oral dose in rats; type: in vivo, Wistar rat
Procedure: as §1
An amount of compound was taken accurately to prepare CMC-Na aqueous solution containing 3 mg/mL of drug. 12 healthy male Wister rats were randomly assigned to two groups, each group including 6 rats. The first group was administrated orally compound 1. The second group was administrated orally compound 2. The doses were both 30 mg/kg (corresponding to 2 mL for each rat). The rats were fasting for 12 h before administration and free access to water. 0.6 mL blood samples were collected at 0.5, 1, 1.5, 2, 2.5, 3, 5, 8, 12 and 24 h after drug administration from the venous sinuses and added into EP tubes which were rinsed with heparin sodium previously. The samples were centrifuged at 4,000 r/min for 15 min and the upper plasma were obtained. 300 μL plasma was subjected to analysis and the chromatogram and peak area were recorded. The plasma concentrations of compounds 1 and 2 were calculated to give average concentration-time curve.
DAS 2.0 program was used to analyze plasma concentration vs. time data after s single oral dose (Table 6, 7). Fitting and the AIC methods were used to determine the model. The analysis was based on the principle that the larger fitting and the smaller AIC, the better model. The oral administration was consistent with the two-compartment model. The statistical distance parameter is used to compare the 2 compounds for the pharmacokinetic parameters.

[12] = system: S180 grafting tumor; assay: Inhibition to S180 grafting tumor in animal; type: in vivo, ICR mouse; settings: for Body weight After administration / Tumor inhibition / Tumor weight: 7 administrations; for Tumor inhibition / Tumor weight: d8
Procedure: ICR mouse was inoculated with solid tumor according to tumor grafting process (tumor piece was weighed under sterile condition, homogenized with glass tissue homogenizer, placed within a sterile container, to which was added physiological saline to prepare 1:3 cell suspension. The container was placed on ice and aspirated and the cells were mixed homogeneously before each aspiration. Each mouse was inoculated subcutaneously 0.2 mL at right fore axilla). […] The mice were administered intravenously, once a day and 7 administrations in total. The administration volume was 0.4 ml/20 g. The mice bearing tumor were sacrificed 8 days after inoculation (d8). The tumor tissue was separated and weighed. The data was analyzed with statistics method (t-test).
Dose setting: 5 groups in total.

[13] = male, Wistar, plasma, rat, oral 30 mg/kg
[14] = 7.5 mg/kg intravenously once a day
[15] = 15 mg/kg intravenously once a day
[16] = 30 mg/kg intravenously once a day

CN1CCN(Cc2ccc(NC(=O)c3n[nH]cc3Nc3ncnc4sccc34)cc2)CC1 [Compound I-1, 4-(4-thieno[2,3-d]pyrimidinylamino)-N-(4-((4-methyl-1-piperazinyl)methyl)phenyl)-1H-3-pyrazole carboxamide]
plasma stability in 24 h (in words) ([1]; 24 h): good plasma stability
Plasma stability (HPLC reading) ([1]; Time 0 h): 2.16
Plasma stability (HPLC reading) ([1]; Time 1 h): 2.24
Plasma stability (HPLC reading) ([1]; Time 2 h): 2.22
Plasma stability (HPLC reading) ([1]; Time 3 h): 2.12
Plasma stability (HPLC reading) ([1]; Time 5 h): 2.11
Plasma stability (HPLC reading) ([1]; Time 8 h): 1.91
Plasma stability (HPLC reading) ([1]; Time 12 h): 1.84
Plasma stability (HPLC reading) ([1]; Time 24 h): 1.95
IC50 [2]: 3.2 µM
IC50 [3]: 25.2 µM
IC50 [4]: 50.3 µM
IC50 [5]: 0.74 µM
logP at 72 h [6]: 1.27
IC50 [7]: 0.42 µM
IC50 [8]: 20.7 µM
IC50 [9]: 2.27 µM
IC50 [10]: 2.54 µM
Cmax [11, 13]: 241 ± 103 ng/mL
Tmax [11, 13]: 5.5 ± 2.29 h
half-life [11, 13]: 45.8 ± 29.1 h
AUC(0-t) ([11]; male, Wistar, plasma, rat, oral 30 mg/kg, read-out: AUC 0-24): 3350 ± 468 ng·h/mL
MRT last ([11]; male, Wistar, plasma, rat, oral 30 mg/kg, read-out: MRT 0-24): 11.6 ± 1.09 h
concentration at 0.5 h ([11]; male, Wistar, rat, plasma, po, 30 mg/kg, mean of rats, oral 30 mg/kg, time 0.5 h, read-out: Plasma concentration, mean): 72.7 ng/mL
concentration at 1 h ([11]; male, Wistar, rat, plasma, po, 30 mg/kg, mean of rats, oral 30 mg/kg, time 1 h, read-out: Plasma concentration, mean): 82.8 ng/mL
concentration at 2 h ([11]; male, Wistar, rat, plasma, po, 30 mg/kg, mean of rats, oral 30 mg/kg, time 2 h, read-out: Plasma concentration, mean): 103 ng/mL
concentration at 2.5 h ([11]; male, Wistar, rat, plasma, po, 30 mg/kg, mean of rats, oral 30 mg/kg, time 2.5 h, read-out: Plasma concentration, mean): 113 ng/mL
concentration at 3 h ([11]; male, Wistar, rat, plasma, po, 30 mg/kg, mean of rats, oral 30 mg/kg, time 3 h): 154 ng/mL
concentration at 5 h ([11]; male, Wistar, rat, plasma, po, 30 mg/kg, mean of rats, oral 30 mg/kg, time 5 h): 164 ng/mL
concentration at 8 h ([11]; male, Wistar, rat, plasma, po, 30 mg/kg, mean of rats, oral 30 mg/kg, time 8 h, read-out: Plasma concentration, mean): 195 ng/mL
concentration at 12 h ([11]; male, Wistar, rat, plasma, po, 30 mg/kg, mean of rats, oral 30 mg/kg, time 12 h, read-out: Plasma concentration, mean): 134 ng/mL
concentration at 24 h ([11]; male, Wistar, rat, plasma, po, 30 mg/kg, mean of rats, oral 30 mg/kg, time 24 h): 123 ng/mL
concentration at 0.5 h ([11]; male, Wistar, rat, plasma, po, 30 mg/kg, rat No. 1-6, oral 30 mg/kg, time 0.5 h, read-out: Plasma concentration, individual rats): 68.8 ng/mL
concentration at 1 h ([11]; male, Wistar, rat, plasma, po, 30 mg/kg, rat No. 1-6, oral 30 mg/kg, time 1 h, read-out: Plasma concentration, individual rats): 105 ng/mL
concentration at 2 h ([11]; male, Wistar, rat, plasma, po, 30 mg/kg, rat No. 1-6, oral 30 mg/kg, time 2 h, read-out: Plasma concentration, individual rats): 114 ng/mL
concentration at 2.5 h ([11]; male, Wistar, rat, plasma, po, 30 mg/kg, rat No. 1-6, oral 30 mg/kg, time 2.5 h, read-out: Plasma concentration, individual rats): 100 ng/mL
concentration at 8 h ([11]; male, Wistar, rat, plasma, po, 30 mg/kg, rat No. 1-6, oral 30 mg/kg, time 8 h, read-out: Plasma concentration, individual rats): 157 ng/mL
concentration at 12 h ([11]; male, Wistar, rat, plasma, po, 30 mg/kg, rat No. 1-6, oral 30 mg/kg, time 12 h, read-out: Plasma concentration, individual rats): 108 ng/mL
Plasma concentration, individual rats ([11]; rat No. 1-6, oral 30 mg/kg, time 0.5 h, 30 mg/kg): 68.95 ng*ml/1 and 65.08 ng*ml/1 and 76.41 ng*ml/1 and 80.51 ng*ml/1 and 76.52 ng*ml/1
Plasma concentration, individual rats ([11]; rat No. 1-6, oral 30 mg/kg, time 1 h, 30 mg/kg): 65.58 ng*ml/1 and 73.81 ng*ml/1 and 81.17 ng*ml/1 and 80.91 ng*ml/1 and 90.92 ng*ml/1
Plasma concentration, individual rats ([11]; rat No. 1-6, oral 30 mg/kg, time 2 h, 30 mg/kg): 97.96 ng*ml/1 and 100.94 ng*ml/1 and 86.23 ng*ml/1 and 86.97 ng*ml/1 and 132.81 ng*ml/1
Plasma concentration, individual rats ([11]; rat No. 1-6, oral 30 mg/kg, time 2.5 h, 30 mg/kg): 96.8 ng*ml/1 and 113.35 ng*ml/1 and 104.16 ng*ml/1 and 106.91 ng*ml/1 and 158.41 ng*ml/1
Plasma concentration, individual rats ([11]; rat No. 1-6, oral 30 mg/kg, time 3 h, 30 mg/kg): 149.67 ng*ml/1 and 112.43 ng*ml/1 and 125.86 ng*ml/1 and 78.87 ng*ml/1 and 266.46 ng*ml/1 and 191.06 ng*ml/1
Plasma concentration, individual rats ([11]; rat No. 1-6, oral 30 mg/kg, time 5 h, 30 mg/kg): 174.04 ng*ml/1 and 159.33 ng*ml/1 and 115.59 ng*ml/1 and 172.92 ng*ml/1 and 127.6 ng*ml/1 and 232.81 ng*ml/1
Plasma concentration, individual rats ([11]; rat No. 1-6, oral 30 mg/kg, time 8 h, 30 mg/kg): 150.59 ng*ml/1 and 233.26 ng*ml/1 and 151.83 ng*ml/1 and 271.51 ng*ml/1 and 205.77 ng*ml/1
Plasma concentration, individual rats ([11]; rat No. 1-6, oral 30 mg/kg, time 12 h, 30 mg/kg): 135.84 ng*ml/1 and 153.29 ng*ml/1 and 135.94 ng*ml/1 and 110.59 ng*ml/1 and 162.93 ng*ml/1
Plasma concentration, individual rats ([11]; rat No. 1-6, oral 30 mg/kg, time 24 h, 30 mg/kg): 126.6 ng*ml/1 and 105.83 ng*ml/1 and 167.23 ng*ml/1 and 133.16 ng*ml/1 and 79.81 ng*ml/1 and 123.91 ng*ml/1
pharmacokinetic parameters (in words) ([11]; rat, oral 30 mg/kg): acceptable
Body weight After administration [12, 14]: 24.00 ± 0.75 g
Tumor inhibition [12, 14]: 36.94%
Tumor weight [12, 14]: 0.74 ± 0.19 g
effect on S180 tumor growth compared to the model control group (in words) ([12]; 7.5 mg/kg, P<0.05): significant inhibitory effect
Body weight After administration [12, 15]: 20.00 ± 1.94 g
Tumor inhibition [12, 15]: 45.2%
Tumor weight [12, 15]: 0.63 ± 0.11 g
effect on S180 tumor growth compared to the model control group (in words) ([12]; 30 mg/kg and 15 mg/kg, P<0.01): very significant inhibitory effect
effect on the body weight of experimental animals (in words) ([12]; 30 mg/kg and 15 mg/kg, P<0.05): significant inhibitory effect on the body weight
Body weight After administration [12, 16]: 20.43 ± 3.20 g
Tumor inhibition [12, 16]: 55.5%
Tumor weight [12, 16]: 0.52 ± 0.25 g
